The text below walks through data of ChEMBL document CHEMBL1140217, “Prolyl oligopeptidase inhibition by N-acyl-pro-pyrrolidine-type molecules” (J Med Chem, 2008).

SMILES strings stand for the structures.

The assay concerns the target T1, Prolyl endopeptidase (Rattus norvegicus, UniProt O70196).
T1 sequence (O70196 whole entry): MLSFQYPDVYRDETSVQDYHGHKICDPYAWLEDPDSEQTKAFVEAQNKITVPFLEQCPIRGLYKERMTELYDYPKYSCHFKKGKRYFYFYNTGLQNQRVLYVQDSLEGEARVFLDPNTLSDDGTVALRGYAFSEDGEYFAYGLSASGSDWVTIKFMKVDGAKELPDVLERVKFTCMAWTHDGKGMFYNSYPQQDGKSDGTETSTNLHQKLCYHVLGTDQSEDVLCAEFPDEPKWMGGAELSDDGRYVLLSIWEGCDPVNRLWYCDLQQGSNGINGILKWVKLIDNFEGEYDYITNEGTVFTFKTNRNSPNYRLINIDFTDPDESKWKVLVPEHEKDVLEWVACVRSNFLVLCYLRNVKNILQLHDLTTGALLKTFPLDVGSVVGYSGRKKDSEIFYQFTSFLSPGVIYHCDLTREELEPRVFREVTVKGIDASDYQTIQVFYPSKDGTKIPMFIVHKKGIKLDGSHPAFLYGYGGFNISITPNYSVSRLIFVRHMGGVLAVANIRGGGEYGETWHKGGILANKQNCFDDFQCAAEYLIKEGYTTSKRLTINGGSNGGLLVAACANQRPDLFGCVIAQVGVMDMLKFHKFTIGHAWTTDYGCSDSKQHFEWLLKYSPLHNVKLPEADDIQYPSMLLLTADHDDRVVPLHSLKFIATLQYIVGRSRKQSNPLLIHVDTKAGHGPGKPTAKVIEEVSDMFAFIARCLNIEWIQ
Description: Inhibition of POP in Sprague-Dawley rat brain homogenates. It is filed as tissue-based.
Take `CCCCCCCC(=O)N1CCC[C@H]1C(=O)N1CCCC1`: the IC50 was found to be 48 nM.
To `O=C([C@@H]1CCCN1C(=O)CCCn1c(=O)c(-c2ccccc2)nc2ccccc21)N1CCCC1` belongs 59 nM; to `O=C([C@@H]1CCCN1C(=O)CCCN1C(=O)c2ccccc2C1=O)N1CCCC1`, 40 nM.
In the case of `O=C([C@@H]1CCCN1C(=O)CCN1C(=O)c2ccccc2C1=O)N1CCCC1`, the IC50 stood at 3 nM.
